In US10350192B2, “Lactate dehydrogenase inhibitor and antiepileptic drug containing the same” (NATIONAL UNIVERSITY CORPORATION OKAYAMA UNIVERSITY, priority 2015, dated 2019):
“And” between values parts separate entries of the source, which are not always exact repeats. Identical values can stand only once. “Also recorded” adds a separate entry of the source.

Key:
human LDH-1 = human LDH-1 (Homo sapiens, UniProt P07195); experiment: Lactate dehydrogenase activity by NADH light absorption at 340 nm, LDH-1; assay type: biochemical; conditions: 500 μM
Description: (§1) Evaluation of inhibition of lactate dehydrogenase by isosafrole (FIG. 4): The activity of lactate dehydrogenase was measured by a versatile method based on light absorption of NADH. Lactate dehydrogenase is an enzyme that interconverts pyruvate and lactate. At that time, NADH and NAD are also interconverted. For lactate dehydrogenase activity from lactate to pyruvate, lactate (20 mM), NAD (200 μM) and lactate dehydrogenase were added and the reaction rate of NADH produced was measured. On the other hand, for the lactate dehydrogenase activity from pyruvate to lactate, pyruvate (1.0 mM), NADH (200 μM) and lactate dehydrogenase were added and the reaction rate of decreasing NADH was measured. Both reactions were carried out at 37° C. in 100 mM sodium phosphate buffer (pH7.3). The light absorption of NADH at 340 nm was measured using an absorptiometer at 30 second intervals for 3.5 minutes to determine the reaction rate. Two kinds of human lactate dehydrogenase (human LDH-1 and LDH-5) were examined as lactate dehydrogenase. The amount of lactate dehydrogenase was set so that the maximum rates of the two lactate dehydrogenases were approximately the same: 0.0033 units/ml of LDH-1 and 0.01 units/ml of LDH-5 for the activity from lactate to pyruvate; and 0.0017 units/ml of LDH-1 and 0.0033 units/ml of LDH-5 for the activity from pyruvate to lactate. […]

[1] = test system: hippocampal sclerosis model mouse; experiment: Epileptic spikes in hippocampal sclerosis model mouse (intrahippocampal kainate); assay type: in vivo
Description: Preparation and measurement of hippocampal sclerosis model mouse (FIGS. 1 to 3): The hippocampal sclerosis model mouse was prepared according to a previous literature (Non-Patent Document 15). Six to seven-week-old ICR mice were used for the experiment. Mice were fully anesthetized with a mixture of ketamine (100 mg/kg) and xylazine (20 mg/kg) and then set on a brain stereotaxic apparatus. Using a micro glass electrode and a Hamilton syringe from above the hippocampus of the head, a trace amount of kainate (0.8 nmol, 40 nL) for inducing epilepsy was injected into the dorsal hippocampus (1.6 mm behind the bregma, 1.6 mm laterally from the centerline, 1.4 mm deep from the brain surface), and then a metal electrode (a diameter of 200 μm) for epileptic electroencephalography was embedded near the kainic acid injection site. In addition, a small plastic U-shaped frame for head fixation required for in vivo electrical measurements was also attached to the head. After 2 weeks or more from surgery, epileptic spikes in the hippocampus were measured. The head was fixed via the U-shaped frame. Epileptic spikes were amplified, then measured via a band-pass filter (0.5-30 Hz) and taken into a computer using an AD converter. After measurement of the baseline electroencephalogram for 30 minutes, stiripentol (300 mg/kg), isosafrole (100-300 mg/kg), sodium oxamate (250-500 mg/kg), or physiological saline was intraperitoneally administered, and then further recording was conducted for 1 hour. Sodium oxamate was dissolved in water, and stiripentol and isosafrole were dissolved in sodium carboxymethyl cellulose (1%) and administered intraperitoneally. In data analysis, high-amplitude epilepsy spikes with an amplitude of 0.5 mV or more were counted 30 minutes before and after administration, respectively, and the efficacy was evaluated by normalization using the number of epileptic spikes before administration. In the observation of morphological changes due to hippocampal sclerosis, the brain was sliced to 300 μm thickness, fixed with 10% formalin, and stained with 0.05% cresylviolet.
Medial temporal lobe epilepsy with hippocampal sclerosis is a typical refractory epilepsy in adults (epilepsy for which existing drugs are not effective). First, according to a previous literature (Non-Patent Document 15), a trace amount of kainic acid was injected to a hippocampus to prepare hippocampal sclerosis model mouse (FIG. 1A). […] This is the same finding as the already reported hippocampal sclerosis model mouse (Non-Patent Document 15), which is similar to the symptom observed in human hippocampal sclerosis (Non-Patent Document 16). When recording on the hippocampus, spontaneous high-amplitude epileptic spikes were observed (FIG. 1C; arrowhead). […]

human LDH-5 [2] = target: T1, human LDH-5 (Homo sapiens, UniProt P00338); experiment: Lactate dehydrogenase activity by NADH light absorption at 340 nm, LDH-5; assay type: biochemical; conditions: 500 μM
Description: as §1

human LDH-5 [3] = target: T1, human LDH-5; experiment: Lactate dehydrogenase inhibition rate, diaphorase/INT formazan coloring reaction (492 nm); assay type: biochemical
Description: Identification of a lactate dehydrogenase inhibitor having isosafrole as a scaffold (FIGS. 5 to 7): Since NADH absorbs light in the ultraviolet region (340 nm) and many compounds absorb the wavelength, NADH is not suitable for screening using a compound library. Therefore, in order to evaluate the lactate dehydrogenase activity from pyruvate to lactate, pyruvate (100 μM), NADH (100 μM) and lactate dehydrogenase (0.015 U/mL of human LDH-5) were firstly added, then allowed to react in a 100 mM sodium phosphate buffer (pH7.3) at 37° C. for 60 minutes (LDH enzyme reaction, 200 μL/well). At this stage, the background absorbance at 492 nm was first measured with a plate reader (absorbance before coloring reaction). Next, in order to measure the amount of NADH remaining in the LDH enzyme reaction, 100 μL/well of a coloring solution in which diaphorase (25 U/mL) and INT (5 mM) were dissolved was added, and then allowed to react in a 100 mM sodium phosphate buffer (pH7.3) at 37° C. for 10 minutes (coloring reaction). Since INT changes to INT formazan by diaphorase in the presence of NADH and develops color, the absorbance at 492 nm of INT formazan was measured with a plate reader (absorbance after coloring reaction).
Calculation of the inhibition rate (% Inhibition) is as follows. ΔA when the above reaction was carried out under the condition that lactate dehydrogenase was present was taken as “0% control value”, and ΔA when the above reaction was carried out under the condition that lactate dehydrogenase was absent was taken as “100% control value”. […] Then, the same reaction as the 0% control was carried out in the presence of a compound having isosafrole as a scaffold, and resultant ΔA was defined as “ΔA in the presence of the compound”. […] Specifically, inhibition rate is calculated as follows: Inhibition rate (%)=100×(ΔA in the presence of the compound−0% control value)/(100% control value−0% control value). Compounds showing inhibition rate of 100% (±25%) were described in FIGS. 6 and 7 as lactate dehydrogenase inhibitor. […]

[4] = test system: pentylenetetrazole-induced acute epileptic seizures; conditions: rats, 300 mg/kg intraperitoneal; cited from earlier work
[5] = rats, 300 mg/kg intraperitoneal; cited from earlier work
[6] = 300 mg/kg intraperitoneal, high-amplitude spikes 30 min after vs before administration

Sequence of human LDH-1 (P07195 2-334 limits assumed): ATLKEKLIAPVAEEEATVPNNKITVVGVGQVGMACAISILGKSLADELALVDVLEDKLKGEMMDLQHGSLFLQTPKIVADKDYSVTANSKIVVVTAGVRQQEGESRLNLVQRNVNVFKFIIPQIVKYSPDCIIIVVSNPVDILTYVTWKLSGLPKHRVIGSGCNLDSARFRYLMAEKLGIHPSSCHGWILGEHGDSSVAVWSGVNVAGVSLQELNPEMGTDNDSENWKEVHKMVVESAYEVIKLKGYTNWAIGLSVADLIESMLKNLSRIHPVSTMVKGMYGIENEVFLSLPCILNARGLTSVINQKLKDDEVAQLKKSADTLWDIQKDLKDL

Structure (SMILES)	effect on lactate dehydrogenase activity from lactate to pyruvate (human LDH-1; Lactate→Pyruvate)	effect on lactate dehydrogenase activity from pyruvate to lactate (human LDH-1; Pyruvate→Lactate)	antiepileptic effect on epileptic spikes [1, 6]	antiepileptic effect on epileptic spikes ([1]; 200-300 mg/kg intraperitoneal)	effect on lactate dehydrogenase activity from lactate to pyruvate (human LDH-5 [2]; Lactate→Pyruvate)	effect on lactate dehydrogenase activity from pyruvate to lactate (human LDH-5 [2]; Pyruvate→Lactate)	inhibition of lactate dehydrogenase (LDH-5) (human LDH-5 [3]; 250 μM)	inhibition of lactate dehydrogenase (LDH-5) (human LDH-5 [3]; 500 μM)	inhibition of lactate dehydrogenase (LDH-5) (human LDH-5 [3]; 500 μM, listed as Isosafrole)	antiepileptic effect on epileptic spikes ([1]; 500 mg/kg intraperitoneal)	suppression of pentylenetetrazole-induced acute epileptic seizures [4]	plasma concentration [5]
C/C=C/c1ccc2c(c1)OCO2 [isosafrole, 5-(1-propenyl)-1,3-benzodioxole]	inhibitory effect	inhibitory effect was strong	significantly suppressed; also recorded: remarkable inhibitory effect on epilepsy	remarkable antiepileptic effect	inhibitory effect	inhibitory effect was strong	not	inhibited	inhibits			
NC(=O)C(=O)[O-].[Na+] [sodium oxamate]										weak anti-epileptic effect		
CC(C)(C)C(O)/C=C/c1ccc2c(c1)OCO2 (stereo not shown) [stiripentol, 4-dimethyl-1-[(3,4-methylenedioxy)-phenyl]-1-penten-3-ol]			scarcely inhibited; also recorded: little antiepileptic effect; also recorded: almost no inhibitory effect								suppressed	20-100 μg/ml and 85-427 μM
